Measured values reported in US20250100962A1 (CITY OF HOPE, priority 2023, published 2025).

Experiments:
mdx primary myoblasts = assay: EdU proliferation in mdx primary myoblasts; assay type: cell-based, mouse; conditions: 0.5-1 μM; 6 hours
Text: FIGS. 16A-16B. Pro-myogenic effect of chlorhexidine on dystrophin-deficient mdx primary myoblasts. FIG. 16A: We used primary myoblasts isolated from male mdx mice as a cellular model to test the effect of CHX on myogenesis. […] Both of the pro-myogenic and proliferative effects of CHX observed in mdx primary myoblasts were consistent with prior findings from C2C12 myoblasts. Additional validations of these effects are on-going using myoblasts derived from human DMD patients.

[1] = system: C3H10T1/2 cells containing Per2::dLuc luciferase reporter; assay: Bioluminescence monitoring of Per2::dLuc reporter in C3H10T1/2 cells; assay type: cell-based; conditions: 10T1/2 cells
Method: Generation of stable adipogenic progenitor cell lines containing Per2::dLuc. 3T3-L1 preadipocytes and the C3H10T1/2 mesenchymal stem cells obtained from ATCC were used for Per2:: dLuc lentiviral transduction and stable clone selection using puromycin, as described previously (Guo et al., 2012). Briefly, cells were transfected with lentiviral packaging plasmids (pSPAX.2 and pMD2.G) and lentivirus vectors Per2::dLuc using PEI Max (Polysciences). At 48 hours post-transfection, lentiviruses were collected. 3T3-L1 and C3H10T1/2 […] cells were infected using collected lentiviral media supplemented with polybrene. 24 hours following lentiviral infection, stable cell lines were selected in the presence of 2 μg/ml puromycin.
Continuous Bioluminescence monitoring of Per2:: dLuc luciferase reporter. 3T3-L1 and C3H10T1/2 cells containing a Per2::dLuc luciferase reporter were generated as described previously (Xiong et al., 2023). […] Raw and subtracted results of real-time bioluminescence recording data for 6 days were exported, and data was calculated as luminescence counts per second, as previously described (Xiong, Li, Nam et al., 2022). […] Briefly, raw data following the first cycle from day 2 to […] were fitted to a linear baseline, and the baseline-subtracted data (polynomial number=1) were fitted to a sine wave, from which period length and goodness of fit and damping constant were determined.

3T3-L1 preadipocytes = assay: Adipogenic differentiation of 3T3-L1 preadipocytes; assay type: cell-based
Method: Cell culture and adipogenic differentiation. 3T3-L1 and C3H10T1/2 cell lines were obtained from ATCC, and maintained in DMEM with 10% fetal bovine serum supplemented with 1% Penicillin-Streptomycin-Glutamine, as previously described (Nam, Guo, Chatterjee et al., 2015; Liu, Xiong, Nam et al., 2020). 0.25% Trypsin was used for digestion and passaging of these cell lines. For adipogenic differentiation induction media (1.6 μM insulin, 1 μM dexamethasone, 0.5 mM IBMX, 0.5 uM Rosiglitazone) was used for 3 days followed by maintenance medium with insulin for 3 days for 3T3-L1 and 5 days for C3H10T1/2 cells, as previously described (Liu et al., 2020). Oil-red-O and Bodipy staining. These stainings for neutral lipids during adipogenic differentiation were performed as previously described (Nam et al., 2015). Briefly, for oil-red-O staining, cells were fixed using 10% formalin and incubated using 0.5% oil-red-O solution for 1 hour. Bodipy 493/503 was used at 1 mg/L together with DAPI for 15 minutes, following 4% paraformaldehyde fixation and permeabilization with 0.2% triton-X100. Immunoblot analysis. Total protein was extracted using lysis buffer containing 3% NaCl, 5% Tris-HCl, 10% Glycerol, 0.5% Triton X-10 in MilliQ water with protease inhibitor cocktail. 20-40 μg of total protein was resolved on 10% SDS-PAGE gels followed by immunoblotting on PVDF membranes (Bio-rad). […]

C2C12 myoblast cell line = assay: MTT cell viability of C2C12 myoblasts; assay type: cell-based; conditions: 0.2-5 μM for 48 hours
Method: Cells were seeded at 5×10^4 concentration in 100 μl culture medium into 96 wells flat bottom microplates and treated after 24 h with desired compounds and controls. After desired incubation periods, cells were treated with MTT labeling reagent 1× (MTT (3-[4,5-dimethylthiazol-2-yl]-2,5-diphenyltetrazolium bromide labeling reagent, 5 mg/ml in PBS, Roche Cell Proliferation Kit I (MTT)) and Solubilization buffer 1× (10% SDS in 0.01 M HCl and left overnight. Next morning absorbance was measured at 570 nm and 700 nm on microplate (ELISA) reader (TECAN infinite M200pro). The mean and standard deviation values were calculated for each well and graphed.
FIGS. 41A-41D. Effect of Chlorhexidine (CHX) and CM002 treatment on viability of mouse and human myoblasts. To determine potential toxic effects of CHX and CM002, we treated mouse C2C12 myoblast cell line with increasing concentrations from 0.2-5 μM for 48 hours and determined cell viability using the MTT assay (FIG. 41A). […] Considering the inflammatory milieus in dystrophic muscles, we further tested the tolerance of myoblasts to these molecules in the presence of inflammatory stimuli, a cytokine cocktail (CC) consisted of 10 ng/mL IL-1β, 100 ng/mL IFN-γ and 25 ng/mL of TNF-α (FIG. 41B). […] Lastly, human primary myoblasts derived from Duchene Muscular Dystrophy (DMD) patients were used to determine their tolerance to these compounds.

[2] = In vivo pharmacokinetics after intravenous tail vein injection; design: species or system mouse; conditions: 1 mg/kg intravenous
Method: FIGS. 47A-47C. In vivo PK study of CM002 by intravenous administration in C57/BL6 mice. We next performed pharmacokinetic analysis of CM002 in normal wild-type C57/BL6 mice to guide in vivo studies. Following intravenous delivery of CM002 via tail vein injection at 1 mg/kg of body weight in three mice of 12 weeks of age, we monitored its plasma concentrations at 6 hours (FIG. 47A) and 24 hours (FIG. 47B). […] Quantitative analysis of key pharmacokinetic parameters is shown in FIG. 47C, based on 1 mg/kg/day intravenous administration.

cells = assay: Cellular toxicity observed across cell assays; assay type: cell-based

Row | Structure (SMILES) | increase of rate of proliferation (EdU) (mdx primary myoblasts) | clock period length [1] | clock cycling amplitude ([1]; 1 and 2 μM) | formation of lipid-laden mature adipocyte (3T3-L1 preadipocytes; day 6, oil-red-O, Bodipy) | C/EBPα and PPARγ levels (3T3-L1 preadipocytes; differentiation day 6) | concentration at which number of viable cells drops (C2C12 myoblast cell line) | plasma level at half-life [2] | time of tissue re-distribution [2] | time to being largely cleared [2] | maximal plasma concentration ([2]; C57/BL6 mice) | half-life ([2]; mouse, plasma, C57/BL6 mice) | viability of cells at 1 μM (cells)
1 | [H]/N=C(\N/C(=N/[H])NCCCCCCNC(=N)NC(=N)Nc1ccc(Cl)cc1)Nc1ccc(Cl)cc1 [CHX, chlorhexidine] | ~22% | dose-dependent clock period shortening, with this effect significant only for 1 and 2 μM | augment clock cycling amplitude | sufficient to inhibit the formation of lipid-laden mature adipocyte in a dose-dependent manner | only moderate tendency of lowering of C/EBPα and PPARγ levels | 2500 nM |  |  |  |  |  | 
2 | CCCCCC/C=N/C(=N)NC(=N)Nc1ccc(Cl)cc1 [CM002] |  |  |  |  |  |  | ~100 ng/mL | ≤ 30 min | ≤ 24 h | ~1.47 mg/L | 6.76 ± 1.33 h | maintained
